Test system: FOXP3
Test: Acetylation of chromatin-bound FOXP3 in HA-FOXP3a/3b transfected Jurkat T cells (immunoblot)
Type: cell-based, human
Details: 1 ng TGF-β per million cells; serum-starved Jurkat T cells; between 2 and 4 hours after exposure; anti-acetyl lys immunoblot; FIG. 10B
Experimental: FIG. 10B is an image of an immunoblot of untreated and TGF-β treated, human HA-FOXP3a/3b transfected Jurkat T cells. The transfected cells were stimulated with or without 1 ng TGF-β per million cells for indicated time periods. Equal amounts of proteins from chromatin rich fractions were separated by SDS-PAGE, transferred to nitrocellulose, and immunoblotted with anti-acetyl lys specific antibody (Ac-K-103, Santa Cruz) followed by reprobing with anti-HA-HRP conjugated antibody. Acetylated FOXP3a and FOXP3b proteins are marked.
The effect of TGF-β on the acetylation of FOXP3 was examined. Serum-starved human HA-FOXP3a/3b transfected Jurkat T cells were stimulated with or without 1 ng TGF-β per million cells for indicated time periods. Equal amounts of proteins from chromatin rich fractions were separated by SDS-PAGE, transferred to nitrocellulose, and immunoblotted with anti-acetyl lys specific antibody (Ac-K-103, Santa Cruz) followed by reprobing with anti-HA-HRP conjugated antibody (FIG. 9B).

## Transforming Growth Factor-β [TGF-β]
  chromatin-bound acetylated FOXP3: High levels of chromatin-bound acetylated FOXP3
